Data on six molecules can be found in US7485626B2, “Combinations of enzyme inhibitor-containing preparations and the use thereof” (IMTM GmbH, priority 2000, dated 2009).

Holding throughout (assay type): cell-based
The subject of assay [1] is activated human peripheric T cells. The assay is described as follows: Proliferation of activated human peripheric T cells (WST-1 cell proliferation assay). The following applies: single or simultaneous administration of I49 and APN inhibitors (Actinonin and Probestin); activated with phytohemagglutinine and phorbol-12-myristate-13-acetate; 72 h; FIG. 9. On the procedure: FIG. 9: The T cells, with the exception of the untreated control, were activated by an addition of phytohemagglutinine and phorbol-12-myristate-13-acetate to the culture medium and were incubated for a time period of 72 h in the presence of the above-mentioned inhibitors single and in combination. Subsequently, the number of metabolically active cells was determined by using the commercially available WST-1 cell proliferation assay (Takara Inc.) in accordance with the provisions of the manufacturer.
(Tetrazolium assays rely on reduction of a dye to a coloured formazan, in cell work by metabolically active cells.)

In assay [2] the test system is human T cell line KARPAS-299. The assay is described as follows: Proliferation of KARPAS-299 cells (WST-1 cell proliferation assay). The settings on record: single and simultaneous administration of I49 and APN inhibitors (Actinonin and Probestin); FIG. 8. The procedure:
FIG. 8: The KARPAS-299 cells were incubated without addition (control) and in the presence of single inhibitors mentioned above as well as in the presence of combinations thereof, respectively. Subsequently, the number of metabolically active cells was determined by using the commercially available WST-1 cell proliferation assay (Takara Inc.) in accordance with the provisions of the manufacturer.

The subject of assay [3] is human peripheric mononuclear cells (MNZ). Put plainly: Proliferation of PHA-activated human mononuclear cells (WST-1 cell proliferation assay). The settings on record: 72 h; for Proliferation of PHA-activated human mononuclear cells (MNZ), number of metabolically active cells: single or simultaneous administration of I49 and Apstatin (X-Pro-aminopeptidase inhibitor), FIG. 10; for Proliferation of human peripheric mononuclear cells (MNZ), number of metabolically active cells: single and simultaneous administration of I49 and Actinonin, PHA, FIG. 7. The procedure: FIG. 7: The MNZ were incubated for a time period of 72 h without addition (control), with an addition of the mitogenic lectin phytohemagglutinin (PHA), and with the addition of PHA and the inhibitors mentioned above, respectively. Subsequently, the number amount of metabolically active cells was determined by using the commercially available WST-1 cell proliferation assay (Takara Inc.) in accordance with the provisions of the manufacturer.
FIG. 10: The mononuclear cells (MNZ) were incubated for a time period of 72 h in the presence of the inhibitors mentioned above single and in combination. Subsequently, the number of metabolically active cells was determined by using the commercially available WST-1 cell proliferation assay (Takara Inc.) in accordance with the provisions of the manufacturer.

The subject of assay [4] is human peripheric T lymphocytes. Put plainly: DNA synthesis of human T lymphocytes (3[H]-thymidine incorporation). The following applies: 72 h incubation; for DNA synthesis of human peripheric T lymphocytes: simultaneous administration of I49 (DP IV inhibitor) and Actinonin (APN inhibitor), FIG. 1. The procedure:
The T cells were incubated for 72 h in the presence of said inhibitors and subsequently, the DNA synthesis rate was determined via a measurement of the ^3[H]-thymidin incorporation, as was described by Reinhold et al. [D. Reinhold et al.: “Inhibitors of dipeptidyl peptidase IV induce secretion of transforming growth factor β1 in PWM-stimulated PBMNC and T cells”, Immunology 1997, 91, 354-360].
Human peripheric T cells were incubated over 3 days with the concentrations of the inhibitors shown. Subsequently, ^3[H]-methyl thymidine was added to the culture medium, and the amount of ^3[H]-thymidine inserted into the DNA was measured after further 6 hours.
The T cells were incubated for 72 h in the presence of said inhibitors, and the DNA synthesis rate was determined subsequently by the measurement of the ^3[H]-thymidine incorporation, as was described by Reinhold et al. [D. Reinhold et al.: “Inhibitors of dipeptidyl peptidase IV induce secretion of transforming growth factor β1 in PWM-stimulated PBMNC and T cells”, Immunology 1997, 91, 354-360].
FIG. 3 show a the synergistic and dose-dependent effect of inhibitors of DP IV (I49) and of prolyl oligopeptidase (Boc-Ala-Thia) on the DNA synthesis of human peripheric T lymphocytes. Human T cells were incubated for three days with the concentrations of inhibitors mentioned above. Subsequently, ^3[H]-methyl thymidine was added to the culture medium, and the amount of ^3[H]-thymidine incorporated into the DNA was measured after further 6 hours.
Human T cells were incubated for three days with the concentrations of inhibitors mentioned above. Subsequently, ^3[H]-methyl thymidine was added to the culture medium, and the amount of ^3[H]-thymidine incorporated into the DNA was measured after further 6 hours.
A general note: Dividing cells build labelled thymidine or BrdU into new DNA.

Assay [5] deals with human peripheric mononuclear cells (MNZ). Put plainly: DNA synthesis of human peripheric mononuclear cells (3[H]-thymidine incorporation). The settings on record: 72 h incubation. The procedure:
The MNZ were incubated for 72 h in the presence of said inhibitors, and the DNA synthesis rate was determined subsequently by the measurement of the ^3[H]-thymidine incorporation, as was described by Reinhold et al. [D. Reinhold et al.: “Inhibitors of dipeptidyl peptidase IV induce secretion of transforming growth factor β1 in PWM-stimulated PBMNC and T cells”, Immunology 1997, 91, 354-360].
Human MNZ were incubated for three days with the concentrations of inhibitors mentioned above. Subsequently, ^3[H]-methyl thymidine was added to the culture medium, and the amount of ^3[H]-thymidine incorporated into the DNA was measured after further 6 hours.

[6] abbreviates: simultaneous administration of I49 (DP IV inhibitor) and Boc-Ala-thiazolidid (prolyl oligopeptidase inhibitor), FIG. 3.
Where [7] appears, read: simultaneous administration of I49 (DP IV inhibitor) and Boc-Ala-Thiazolidid (prolyl oligopeptidase inhibitor), FIG. 4.
[8] abbreviates: simultaneous administration of I49 (DP IV inhibitor) and actinonine (APN inhibitor), FIG. 2.
Where [9] appears, read: simultaneous administration of I49 (DP IV inhibitor) and Captopril (ACE inhibitor), FIG. 5.
The mark [10] stands for this setting: simultaneous administration of I49 (DP IV inhibitor) and Captopril (ACE inhibitor), FIG. 6.

Structures are written as SMILES.

Consider `CC(C)C[C@H](NC(=O)[C@@H](O)[C@H](N)Cc1ccccc1)C(=O)N1CCC[C@H]1C(=O)N1CCC[C@H]1C(=O)O` [Probestin], for which, in assay [1], the “Proliferation of activated human peripheric T cells, number of metabolically active cells” value is “Inhibition of the Proliferation”. The “Proliferation of the human T cell line KARPAS-299, number of metabolically active cells” value in assay [2] is listed as “Inhibition of the Proliferation”.
Turning to `C[C@H](NC(=O)[C@@H]1CCCN1C(=O)[C@@H]1CCCN1C(=O)[C@@H](O)[C@H](N)Cc1ccccc1)C(N)=O` [Apstatin], the “Proliferation of PHA-activated human mononuclear cells (MNZ), number of metabolically active cells” value in assay [3] was “Inhibition of the Proliferation”.
As to `CC(NC(=O)OC(C)(C)C)C(=O)N1CCSC1` (stereo not drawn) [Boc-Ala-thiazolidid], in assay [4] (setting [6]), the “DNA synthesis of human T lymphocytes” value was “inhibited in a superadditive manner”. For the same molecule, the “DNA synthesis of human peripheric mononuclear cells (MNZ)” value (“DNA synthesis … (MNZ)” for short) in assay [5] (setting [7]) is recorded as “inhibited in a superadditive manner”.
With `CCCCC[C@H](CC(=O)NO)C(=O)N[C@H](C(=O)N1CCC[C@H]1CO)C(C)C` [Actinonin], the “Proliferation of human peripheric mononuclear cells (MNZ), number of metabolically active cells” value in assay [3] is recorded as “Inhibition of the Proliferation”. The “DNA synthesis of human peripheric T lymphocytes” value in assay [4] is given as “inhibited in a superadditive manner”. Also, the “Proliferation of activated human peripheric T cells, number of metabolically active cells” value in assay [1] is on record as “Inhibition of the Proliferation”. Moreover, the “DNA synthesis … (MNZ)” value in assay [5] (setting [8]) is recorded as “inhibited in a superadditive manner”. Also, in assay [2], the “Proliferation of the human T cell line KARPAS-299, number of metabolically active cells” value was “Inhibition of the Proliferation”.
Turning to `C[C@H](CS)C(=O)N1CCC[C@H]1C(=O)O` [Captopril], in assay [4] (setting [9]), the “DNA synthesis of human T lymphocytes” value was “inhibited in a superadditive manner”. Besides, in assay [5] (setting [10]), the “DNA synthesis … (MNZ)” value is on record as “inhibited in a superadditive manner”.
On to `NC(CCCCNC(=O)OCc1ccc([N+](=O)[O-])cc1)C(=O)N1CCSC1` (stereo not shown) [I49, Lys[Z(NO2)]-thiazolidid], for which the “Proliferation of human peripheric mononuclear cells (MNZ), number of metabolically active cells” value in assay [3] is given as “Inhibition of the Proliferation”. Moreover, the “Proliferation of PHA-activated human mononuclear cells (MNZ), number of metabolically active cells” value in assay [3] was “Inhibition of the Proliferation”. Moreover, in assay [4], the “DNA synthesis of human peripheric T lymphocytes” value is given as “inhibited in a superadditive manner”. Also, the “DNA synthesis of human T lymphocytes” value in assay [4] (setting [6]) and in assay [4] (setting [9]) was “inhibited in a superadditive manner” throughout. In assay [1], the “Proliferation of activated human peripheric T cells, number of metabolically active cells” value is reported as “Inhibition of the Proliferation”. The “DNA synthesis … (MNZ)” value in assay [5] (setting [7]), in assay [5] (setting [10]) and in assay [5] (setting [8]) was “inhibited in a superadditive manner” throughout. The “Proliferation of the human T cell line KARPAS-299, number of metabolically active cells” value in assay [2] is on record as “Inhibition of the Proliferation”.
